{"source": "paper PMC12491715", "about": "(Acta Pharmaceutica Sinica. B, 2025)", "key": {"C57BL/6JRccHsd mice": {"tested_on": "C57BL/6JRccHsd mice", "assay": "Daily observation during repeated dosing", "assay_type": "in vivo", "settings": "1 or 5 mg/kg p.o. daily for 27 days", "description": "[…]. […] Due to the nature of this pilot study, the mice were housed individually.\nSeven animals received the 1 mg/kg dose of compound 8, and five animals received the 5 mg/kg dose of compound 8. Compound 8 was prepared as a stock solution in 100% MeCN (5 and 10 mg/mL) and kept refrigerated for the duration of the study. The dosages were prepared as follows: based on the animal’s body weight, a calculated volume of compound 8 stock solution was accurately pipetted onto a cubic piece (approx. 50 mg) of sterilized toast (Ölz multigrain toast, Rudolf Ölz Meisterbäcker GmbH & Co KG, Austria), and left to dry at room temperature for 5 min. Subsequently, 25 μL of 50% sucrose in distilled water were added at the same site to mask the bitter taste of compound 8. These dosage units were prepared twice a week during the study and stored in a closed glass petri dish at room temperature until use. For administration, the toast pieces were placed on the floor of the cage at the same time each day, and left for the animal to eat it voluntarily (the consumption of the dosage was confirmed by observation). Compound 8 was administered in this way for 27 days, eliminating the need for repeated handling and injection. The animals were observed daily for general activity level, hair coat quality or other abnormal behavior or clinical signs."}, "[1]": {"tested_on": "ICR mice icv-injected with Aβ1–42", "assay": "Y maze spontaneous alternation, mice model with icv-injection of Aβ1–42", "assay_type": "in vivo", "settings": "ip, once a day", "description": "Mice model with icv-injection of Aβ1–42 The experiments were performed using ICR male mice (8–10 weeks old, weight 18–20 g), which were purchased from Shanghai Bikai Animal Breeding Factory (Shanghai, China). Animals were housed in cages (6 mice per cage) at a constant temperature of 25±2 °C, humidity of 55%±10% and a light/dark (12:12) cycle. The mice had unlimited access to food and water prior to the experiment. Specified conditions for the maintenance of mice were ensured throughout the experiments, including tree bedding (Yizheng Anlimao Biotechnology Co., Ltd., China) and lab feed (Zimao, China). For behavioural tests, mice were selected randomly, each group consisted of 6 mice. The experiments were performed between 9 am and 3 pm.\nAccording to the literature procedure, recombinant human hexafluoroisopropanol-pretreated Aβ1–42 from Merck Millipore (Darmstadt, Germany) was dissolved in 1% DMSO, diluted with saline to the final concentration of 2 mg/mL, and incubated for 72 h to form oligomers. […]\nSpontaneous alternation (Y maze) test was used to assess working memory in mice. […] The experimental data recorded the number of times the animal entered the three arms in a row. […] The behavior of mice in the Y maze was recorded by Xeye Aba and processed by GraphPad Prism 5."}, "tau": {"tested_on": "tau", "assay": "Western blot of APP/PS1 mice brain homogenates, tau", "assay_type": "in vivo, C57BL/6J-TgN(APP/PS1)ZLFILAS mice", "settings": "15-day treatment, 1 or 5 mg/kg ip"}, "[2]": {"assay": "pKa from solubility and partition measurements", "assay_type": "physicochemical", "settings": "break in the logP vs. pH and log(solubility) vs. pH plot", "description": "The supernatants were diluted 1:5 with 50% MeCN or used directly for UPLC analysis (calibration curve was constructed from 0.5–100 mg/L standard solutions of compound 8).\nShake-flask partition coefficient measurement was done according to OECD guideline 107 (27. 7. 1995) and EPA OPPTS 830.7550 guideline (1996). Briefly, PBS pH 7.4 buffer (50 mL) and n-octanol (50 mL) were thoroughly shaken to ensure saturation of both phases and left to separate. Compound 8 stock solution in n-octanol (approx. 1000 mg/L) was accurately pipetted into Eppendorf tubes (500, 1000, 500 μL, respectively) and n-octanol-saturated PBS pH 7.4 buffer (500, 500, 1000 μL, respectively) was added. Each solvent ratio was done in duplicates. The Eppendorf tubes were thoroughly shaken to ensure partition and centrifuged (5000 × g, 10 min) to separate the phases. Water phase (carefully sampled using needle and syringe) was transferred to HPLC vials directly, whereas n-octanol phases were diluted with MeCN (10–50×) prior to analysis. Additional dilutions were carried out, if needed."}}, "data": [{"smiles": "CCN(CC)C(=O)n1cnc(C2(CC)Cc3ccccc3C2)c1", "note": "[Compound 8, N,N-Diethyl-4-(2-ethylindan-2-yl)-1H-imidazole-1-carboxamide]", "values": [{"measurement": "adverse effects on repeated dosing", "setting": "C57BL/6JRccHsd mice", "result": "No adverse effects were observed"}, {"measurement": "spontaneous alternation in the Y maze task", "setting": "[1]", "result": "increased spontaneous alternation"}, {"measurement": "tau hyperphosphorylation in whole brain homogenates", "setting": "tau", "result": "significantly lowered tau hyperphosphorylation"}, {"measurement": "pKa", "setting": "[2]", "result": 4.1}]}]}
